This data set in a line: Pharmacokinetic evaluation in C57BL/6 mice after intravenous and oral administration. Format: in vivo. The note with it: male, mouse, plasma; for Cmax / clearance / half-life / Vd: IV 1 mg/kg; for Cmax: oral 2 mg/kg, route of Cmax not stated, read-out: max concentration Cmax; for clearance: read-out: clearance CL; for half-life: read-out: half-life T1/2 (IV, h) (converted); for Vd: read-out: volumes of distribution Vdss; for bioavailability: PO 2 mg/kg vs IV 1 mg/kg, read-out: bioavailability F (%); for AUC(0-t): PO 2 mg/kg, read-out: the area under the plasma concentration-time curve AUC0-last PO. As to the method: Experimental purposes: To test the pharmacokinetics of compounds in C57BL/6 mice
C57BL/6 mice (male, 7-9 weeks old, Shanghai Slack)
Test the pharmacokinetics characteristics of rodents after intravenous and oral administration in accordance with standard protocols, and the candidate compound was formulated into a clear solution in the experiment. The mice were administered by intravenous injection and orally once. The intravenous and oral vehicle is a 10% aqueous solution of hydroxypropyl β-cyclodextrin or a physiological saline solution. Six male C57BL/6 mice were employed in this assay, three of them were administered intravenously at a dose of 1 mg/kg, plasma samples were collected at 0 h (before administration) and 0.0833, 0.25, 0.5, 1, 2, 4, 7, 24 h after administration. Another three mice were administered by oral gavage at a dose of 2 mg/kg, plasma samples were collected at 0 h (before administration) and 0.5, 1, 2, 3, 4, 6, 24 h after administration. Collect whole blood samples within 24 hours, centrifuge at 3000 g for 15 minutes, separate the supernatant to obtain a plasma sample, 4 times volume of the internal standard acetonitrile solution was added to precipitate the protein. Centrifuge the supernatant and add an equal volume of water and centrifuge to take the supernatant. LC-MS/MS was used to quantitatively analyze plasma concentrations and calculate pharmacokinetic parameters such as max concentration (Cmax), clearance (CL), half-life (T1/2), volumes of distribution (Vdss), the area under the plasma concentration-time curve (AUC0-last), bioavailability (F), etc.

Turning to `N[C@H]1CC[C@H](c2nc(C3(CN[C@@H]4C[C@H]4c4ccccc4)CC3)no2)CC1` [Example 144], the Cmax turned out to be 25.3 ng/mL, the clearance was determined as 92 mL/min/kg, the half-life was 4.5 h and the Vd was found to be 28.5 L/kg. In addition, the bioavailability is 21.5% and the AUC(0-t) came to 0.17 µM·h.
In the case of `N[C@H]1CC[C@@H](c2nc(C3(CN[C@@H]4C[C@H]4c4ccccc4)CC3)no2)CC1` [Example 145], the Cmax amounted to 11.9 ng/mL, the clearance turned out to be 108 mL/min/kg, the half-life is 11.7 h and the Vd is 81.8 L/kg. Moreover, the bioavailability was 9.1% and the AUC(0-t) came out at 0.0654 µM·h.
For `N[C@H]1CC[C@H](c2cc(C3(CN[C@@H]4C[C@H]4c4ccccc4)CC3)no2)CC1` [Example 241], the Cmax worked out at 49.5 ng/mL, the clearance is 104 mL/min/kg, the half-life is 2.4 h and the Vd came out at 20.9 L/kg. Further, the bioavailability was 36.7% and the AUC(0-t) came to 0.271 µM·h.
